Molecules are shown by their SMILES. pIC50: −log10 of the molar value.

This note sets out measurements from ChEMBL document CHEMBL5360531, “Pyrazolone derivatives as potent and selective small-molecule SIRT5 inhibitors” (Eur J Med Chem, 2023).

For experiment [1], the target named is T1, NAD-dependent protein deacylase sirtuin-5, mitochondrial (Homo sapiens, UniProt Q9NXA8). The experiment is described as follows: Inhibition of human SIRT5.
The target of experiment [2] is T1, NAD-dependent protein deacylase sirtuin-5, mitochondrial. Briefly: Inhibition of human SIRT5 by fluorescence based analysis.

T1 sequence (Q9NXA8 whole entry): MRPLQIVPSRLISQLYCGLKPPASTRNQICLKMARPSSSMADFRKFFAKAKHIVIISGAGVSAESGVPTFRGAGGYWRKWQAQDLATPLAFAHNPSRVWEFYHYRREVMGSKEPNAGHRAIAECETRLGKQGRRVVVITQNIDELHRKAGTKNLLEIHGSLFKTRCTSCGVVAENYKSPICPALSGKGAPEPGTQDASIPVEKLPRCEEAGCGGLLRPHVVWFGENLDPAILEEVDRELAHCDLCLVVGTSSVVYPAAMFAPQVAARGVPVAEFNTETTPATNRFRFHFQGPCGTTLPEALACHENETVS

On to `N=C(N)NCCC[C@@H]1NC(=O)CCC(=O)NCCCC[C@@H](C(N)=O)NC(=O)[C@H](CCCCNC(=S)NCCC(=O)O)NC1=O`, for which the pIC50 in experiment [1] is 5.66.

Turning to `COC(=O)c1ccc(/C=C2/C(=O)N(c3nc(-c4cccc(OC)c4)cs3)N=C2C)cc1`, the pIC50 in experiment [2] was 4.80.

As to `COc1ccc(-c2csc(N3N=C(C)/C(=C\c4ccc(C(=O)O)cc4)C3=O)n2)cc1`, the negative-log IC50 (pIC50) in experiment [2] is 5.74.

For the molecule `CC1=NN(c2nc(-c3ccc(Br)cc3)cs2)C(=O)/C1=C/c1ccc(Cl)cc1`, in experiment [2], the negative-log IC50 (pIC50) is 4.90.

On to `CC1=NN(c2nc(-c3ccccc3F)cs2)C(=O)/C1=C/c1ccc(C(=O)O)cc1`, for which the pIC50 in experiment [2] is 5.38.

In the case of `CC1=NN(c2nc(-c3ccccc3F)cs2)C(=O)/C1=C/c1ccc(C#N)cc1`, the negative-log IC50 (pIC50) in experiment [2] is 4.86.

`COC(=O)c1ccc(/C=C2/C(=O)N(c3nc(-c4ccc(C(F)(F)F)cc4)cs3)N=C2C)cc1` showed a negative logarithm of the IC50 (pIC50) in experiment [2] of 5.55.

Molecule `CC1=NN(c2nc(-c3ccc(C(F)(F)F)cc3)cs2)C(=O)/C1=C/c1ccc(C(=O)O)cc1` showed a pIC50 in experiment [2] of 6.28.

As for `COC(=O)c1ccc(/C=C2/C(=O)N(c3nc(-c4ccc(C#N)cc4)cs3)N=C2C)cc1`, the negative logarithm of the IC50 (pIC50) in experiment [2] is 5.28.

Molecule `CC1=NN(c2nc(-c3ccc(F)cc3)cs2)C(=O)/C1=C/c1ccc(Cl)cc1` gave a pIC50 in experiment [2] of 5.20.

For `COC(=O)c1ccc(/C=C2/C(=O)N(c3nc(-c4cccc(F)c4)cs3)N=C2C)cc1`, the negative logarithm of the IC50 (pIC50) in experiment [2] was 4.98.

In turn, `COc1ccc(-c2csc(N3N=C(C)/C(=C\c4ccc(Cl)cc4)C3=O)n2)cc1` gave a negative-log IC50 (pIC50) in experiment [2] of 4.65.

In turn, `COc1ccccc1-c1csc(N2N=C(C)/C(=C\c3ccc(C(=O)O)cc3)C2=O)n1` showed a pIC50 in experiment [2] of 5.26.

`COC(=O)c1ccc(/C=C2/C(=O)N(c3nc(-c4ccc(Cl)cc4)cs3)N=C2C)cc1` showed a negative-log IC50 (pIC50) in experiment [2] of 5.59.

`CC1=NN(c2nc(-c3cccc(C)c3)cs2)C(=O)/C1=C/c1ccc(C(=O)O)cc1` showed a pIC50 in experiment [2] of 5.35.

In turn, `COC(=O)c1ccc(/C=C2/C(=O)N(c3nc(-c4cccc(C#N)c4)cs3)N=C2C)cc1` gave a pIC50 in experiment [2] of 4.78.

In the case of `CC1=NN(c2nc(-c3ccc(Cl)cc3)cs2)C(=O)/C1=C/c1ccc(Cl)cc1`, in experiment [2], the pIC50 is 5.12.

Take `COC(=O)c1ccc(/C=C2/C(=O)N(c3nc(-c4ccccc4F)cs3)N=C2C)cc1`: in experiment [2], the pIC50 was 4.90.

In turn, `CC1=NN(c2nc(-c3cccc(C#N)c3)cs2)C(=O)/C1=C/c1ccc(C(=O)O)cc1` gave a negative logarithm of the IC50 (pIC50) in experiment [2] of 5.38.

In turn, `CC1=NN(c2nc(-c3ccc(F)cc3)cs2)C(=O)/C1=C/c1ccc(C(=O)O)cc1` showed a pIC50 in experiment [2] of 6.07.

Molecule `COC(=O)c1ccc(/C=C2/C(=O)N(c3nc(-c4ccccc4OC)cs3)N=C2C)cc1` had a pIC50 in experiment [2] of 4.69.

For `COC(=O)c1ccc(/C=C2/C(=O)N(c3nc(-c4ccc(C)cc4)cs3)N=C2C)cc1`, in experiment [2], the negative logarithm of the IC50 (pIC50) is 5.18.

Take `COC(=O)c1ccc(/C=C2/C(=O)N(c3nc(-c4ccc(O)cc4)cs3)N=C2C)cc1`: in experiment [2], the pIC50 is 4.89.

In the case of `COC(=O)c1ccc(/C=C2/C(=O)N(c3nc(-c4ccc(F)cc4)cs3)N=C2C)cc1`, in experiment [2], the pIC50 was 5.23.

On to `COc1ccc(-c2csc(N3N=C(C)/C(=C\c4ccc(C)cc4)C3=O)n2)cc1`, for which the negative logarithm of the IC50 (pIC50) in experiment [2] is 4.43.

Molecule `COc1cccc(-c2csc(N3N=C(C)/C(=C\c4ccc(C(=O)O)cc4)C3=O)n2)c1` showed a pIC50 in experiment [2] of 5.51.

Regarding `COC(=O)c1ccc(/C=C2/C(=O)N(c3nc(-c4cccc(C)c4)cs3)N=C2C)cc1`, in experiment [2], the pIC50 is 4.69.

With `CC1=NN(c2nc(-c3ccc(C)cc3)cs2)C(=O)/C1=C/c1ccc(C(=O)O)cc1`, in experiment [2], the negative-log IC50 (pIC50) is 5.89.

`COC(=O)c1ccc(/C=C2/C(=O)N(c3nc(-c4ccc(OC)cc4)cs3)N=C2C)cc1` had a negative-log IC50 (pIC50) in experiment [2] of 4.99.

In the case of `CC1=NN(c2nc(-c3ccc(O)cc3)cs2)C(=O)/C1=C/c1ccc(C(=O)O)cc1`, in experiment [2], the negative-log IC50 (pIC50) is 5.72.

`CC1=NN(c2nc(-c3cccc(F)c3)cs2)C(=O)/C1=C/c1ccc(C(=O)O)cc1` had a negative-log IC50 (pIC50) in experiment [2] of 5.73.

In experiment [2], `CC1=NN(c2nc(-c3ccc(C#N)cc3)cs2)C(=O)/C1=C/c1ccc(C(=O)O)cc1` had a pIC50 of 5.98.

In experiment [2], `COC(=O)c1ccc(/C=C2/C(=O)N(c3nc(-c4ccc(Br)cc4)cs3)N=C2C)cc1` had a pIC50 of 5.36.

As to `COC(=O)c1ccc(/C=C2/C(=O)N(c3nc(-c4cccc(C(F)(F)F)c4)cs3)N=C2C)cc1`, the negative logarithm of the IC50 (pIC50) in experiment [2] was 5.64.

Regarding `CC1=NN(c2nc(-c3ccc(Br)cc3)cs2)C(=O)/C1=C/c1ccc(C(=O)O)cc1`, the pIC50 in experiment [2] is 5.76.

The pIC50 is the negative decadic logarithm of the IC50, by convention in mol/L. Read a low pIC50 as a high IC50.
